Experimental data as given in paper PMC8615111, “Phenolic Thiazoles with Antioxidant and Antiradical Activity. Synthesis, In Vitro Evaluation, Toxicity, Electrochemical Behavior, Quantum Studies and Antimicrobial Screening” (Antioxidants, 2021).
Read-outs that look alike come from different tables or passages of the source.

What was measured:
[1] = ABTS˙^+ radical scavenging assay; assay type: biochemical; conditions: for IC50: ABTS˙^+ scavenging
[2] = DPPH˙ radical scavenging assay; assay type: biochemical; conditions: for IC50: DPPH˙ scavenging
Cu^2+ chelation assay = assay type: biochemical
[3] = Ferric ions (Fe^3+) reducing antioxidant power by cyclic voltammetry; conditions: for Ered (V): 1st Ered; for Ired (μA): 1st Ired
Protocol: The evaluated compounds’ stock solutions used were prepared at a concentration of 5 mM. To test their redox properties, dilutions of 0.5 mM and 2 mM were prepared in 0.1 M HClO4 electrolyte (pH = 1.2). Screen-printed electrodes (SPEs; Metrohm DropSens, Oviedo, Spain) (planar electrodes) with graphite and gold working electrodes were used. Cyclic voltammetry (CV) and differential pulse voltammetry (DPV) were the electrochemical methods applied. The experimental conditions for each test are mentioned near the corresponding data (Appendix A).
(§1) The antioxidant properties were evaluated in terms of their activity against some free radicals, and other compounds reported in the literature, relevant for this purpose, such as: • ferric ions (Fe^3+)—used to test the reduction of the antioxidant character of the compounds; • DPPH˙ free radical– used to test the scavenging effect of the compounds on this radical; • hydrogen peroxide (H2O2)—used to test the scavenging effect of the synthesized molecules on this compound; • 2,2,6,6-tetramethylpiperidinyl-1-oxy (TEMPO)—used to test the scavenging effect of the synthesized molecules on this compound.
This method is based on the evaluation of the influence of the compound measured by the direct reduction of Fe[(CN)6]^3− to […]. This assay is based on the reduction of Fe^3+ to Fe^2+ due to the action of antioxidants. Based on the electrochemical behavior of the studied compounds, the interaction of Fe^3+ was followed by cyclic voltammetry (CV) via the possible changes of redox peaks characteristic for Fe^3+/Fe^2+ transition after the interaction with antioxidants (if any).
From the voltammogram of potassium ferricyanide it can be observed that the one-electron transfer process Fe^3+/Fe^2+ occurs at 0.247 V/ 0.150 V in acidic media (red) (Figure A1; Table A1).
Each compound presents its characteristic peaks (blue line in each figure).

[4] = DPPH˙ radical scavenging by cyclic voltammetry
Protocol: as §1
The radical scavenging properties of the novel compounds and the other antioxidants were determined using a stock DPPH˙ radical solution prepared in absolute ethanol. The antioxidant samples were mixed with DPPH˙ solution and HClO4 electrolyte and incubated in the dark for 30 min. The remaining redox activity of DPPH was measured by cycling the potential between −0.7 V and 1.2 V, with a scan rate of 0.1 V/s.
The nitrogen-centered 2-2-diphenyl-1-picrylhydrazyl radical (DPPH˙) based assay is one of the most commonly employed method to evaluate the ability of a compound to scavenge or neutralize free radicals based on the reduction of the radical.
Taking into account the redox activity of DPPH˙, its diminution by an antioxidant can also be followed by CV, which is expected to show changes in the voltammetric peaks. Figure A5 reports the electrochemical study of initial electrooxidation of DPPH˙ and the novel compounds compared to remaining peaks after their incubation for 30 min. The decrease of all the peaks after mixture incubation indicates the partial consumption of DPPH˙.

HaCaT cells = test: Cytotoxicity determination, MTT method; assay type: cell-based; conditions: Homo sapiens, HaCaT cells, MTT, 24 h
Procedure, shortened: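 Normal human HaCaT keratinocytes seeded at 12×10^3 cells/well and attached 24 h at 37 °C, 5% CO2 before treatment. After 24 h, MTT at 5 μg/mL/well applied for 2 h, formazan dissolved in isopropanol and read at 550 and 630 nm.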

[5] = compound + Fe^3+/Fe^2+, 2nd Eox
[6] = compound + Fe^3+/Fe^2+, 2nd Iox column
[7] = compound alone 0.5 mM in 0.1 M HClO4, 2nd Iox column
[8] = compound + DPPH, 30 min, 2nd Eox
[9] = compound alone, 2nd Ered column

| SMILES | % of ABTS˙^+ Scavenged ([1]; 0.5 µg/mL) | % of ABTS˙^+ Scavenged ([1]; 0.75 µg/mL) | % of ABTS˙^+ Scavenged ([1]; 1 µg/mL) | % of ABTS˙^+ Scavenged ([1]; 1.5 µg/mL) | % of ABTS˙^+ Scavenged ([1]; 2.5 µg/mL) | IC50 [1] | % of DPPH˙ Scavenged ([2]; 1 µg/mL) | % of DPPH˙ Scavenged ([2]; 1.5 µg/mL) | % of DPPH˙ Scavenged ([2]; 2 µg/mL) | % of DPPH˙ Scavenged ([2]; 3 µg/mL) | % of DPPH˙ Scavenged ([2]; 5 µg/mL) | IC50 [2] | Chelation Capacity (%), cupric ions (Cu^2+ chelation assay; 3.36 µg/mL) | Chelation Capacity (%), cupric ions (Cu^2+ chelation assay; 6.72 µg/mL) | Chelation Capacity (%), cupric ions (Cu^2+ chelation assay; 10.08 µg/mL) | Chelation Capacity (%), cupric ions (Cu^2+ chelation assay; 13.44 µg/mL) | Chelation Capacity (%), cupric ions (Cu^2+ chelation assay; 16.80 µg/mL) | Ered (V) ([3]; compound + Fe^3+/Fe^2+) | Ired (μA) ([3]; compound + Fe^3+/Fe^2+) | Eox (V) [3, 5] | also measured |
| --- | --- | --- | --- | --- | --- | --- | --- | --- | --- | --- | --- | --- | --- | --- | --- | --- | --- | --- | --- | --- | --- |
| Br.C/C(=N\Nc1nc(-c2ccc(O)c(C(N)=O)c2)cs1)c1ccc(O)cc1O [Compound 7a, (E)-1-(4-(3-carbamoyl-4-hydroxyphenyl)thiazol-2-yl)-2-(1-(2,4-dihydroxyphenyl)ethylidene)hydrazin-1-ium bromide] | 11.62% | 17.29% | 22.69% | 30.78% | 49.37% | 2.52 µg/mL | 20.01% | 22.10% | 26.75% | 32.43% | 49.27% | 5.19 µg/mL | 8.76% | 16.70% | 26.63% | 34.35% | 38.88% | 0.164 V | −7.23 μA | 0.23 V | Iox (μA) [3, 6]: 4.35 μA; Iox (μA) ([3]; compound + Fe^3+/Fe^2+, 3rd Iox column): 1.75 μA; Iox (μA) [3, 7]: 4.37 μA; Iox (μA) ([3]; compound alone 0.5 mM in 0.1 M HClO4, 3rd Iox column): 1.95 μA; Iox (μA) ([4]; compound + DPPH, 30 min): 9.24 μA; Eox (V) [4, 8]: 0.405 V; Eox (V) ([4]; compound alone 0.5 mM in 0.1 M HClO4, 1st Eox column): 0.205 V; Iox (μA) ([4]; compound alone 0.5 mM in 0.1 M HClO4, 1st Iox column): 3.21 μA; Ered (V) [4, 9]: 0.217 V; Ired (μA) ([4]; compound alone, 2nd Ired): −5.26 μA; Eox (V) ([4]; compound alone, 3rd Eox column): 0.493 V; Iox (μA) ([4]; compound alone, 3rd Iox column): 3.95 μA; IC50 (HaCaT cells; read-out: IC50): 75.5 µM; IC50 (HaCaT cells; read-out: IC50 (µg/mL)): 35.1 µg/mL |
| Br.NC(=O)c1cc(-c2csc(N/N=C/c3ccc(O)cc3O)n2)ccc1O [Compound 7b, (E)-1-(4-(3-carbamoyl-4-hydroxyphenyl)thiazol-2-yl)-2-(2,4-dihydroxybenzylidene) hydrazin-1-ium bromide] | 25.42% | 30.15% | 36.50% | 49.20% | 69.53% | 1.60 µg/mL | 24.01% | 26.00% | 30.41% | 35.81% | 51.80% | 4.84 µg/mL | 7.23% | 11.41% | 14.46% | 19.40% | 22.72% | 0.161 V | −6.8 μA | 0.305 V | Eox (V) ([3]; compound 0.5 mM + Fe^3+/Fe^2+ (0.5 mM potassium ferricyanide), 1st Eox column): 0.205 V; Iox (μA) ([3]; compound 0.5 mM + Fe^3+/Fe^2+ (0.5 mM potassium ferricyanide), 1st Iox column): 1.39 μA; Iox (μA) [3, 6]: 6.08 μA; Eox (V) ([3]; compound + Fe^3+/Fe^2+, 5th Eox): 0.926 V; Iox (μA) ([3]; compound + Fe^3+/Fe^2+, 5th Iox column): 6.34 μA; Eox (V) ([3]; compound alone 0.5 mM in 0.1 M HClO4, 2nd Eox): 0.347 V; Iox (μA) [3, 7]: 2.07 μA; Eox (V) ([3]; compound alone 0.5 mM in 0.1 M HClO4, 5th Eox): 1.065 V; Iox (μA) ([3]; compound alone 0.5 mM in 0.1 M HClO4, 5th Iox column): 2.64 μA; Iox (μA) ([4]; compound + DPPH, 30 min): 9.076 μA; Ered (V) ([4]; compound + DPPH, 30 min, 1st Ered): 0.291 V; Ired (μA) ([4]; compound + DPPH, 30 min, 1st Ired): −7.43 μA; Eox (V) [4, 8]: 0.359 V; Iox (μA) ([4]; compound alone): 15.65 μA; Eox (V) ([4]; compound alone, 2nd Eox): 0.342 V; Ered (V) [4, 9]: 0.276 V; Ired (μA) ([4]; compound alone, 2nd Ired): −2.54 μA; IC50 (HaCaT cells; read-out: IC50): 93.9 µM; IC50 (HaCaT cells; read-out: IC50 (µg/mL)): 42.4 µg/mL |
